Measurements published in PMC6155426, “Metabolite Profiling of Eastern Teaberry (Gaultheria procumbens L.) Lipophilic Leaf Extracts with Hyaluronidase and Lipoxygenase Inhibitory Activity” (Molecules : A Journal of Synthetic Chemistry and Natural …, 2017).
pIC50: −log10 of the molar value. Like-named read-outs stand apart in the source and are kept apart here.

What was measured:
[1] = molecular target: T1, lipoxygenase from soybean (Glycine max, UniProt P08170); assay: Lipoxygenase inhibition test (spectrophotometric, 96-well); assay type: biochemical; conditions: for IC50: tested 50−1000 μg/mL, linoleic acid substrate, pH 9.0, mean ± SD (n = 3 × 2), read-out: LOX inhibitory activity (IC50) (converted)
T1 construct: purchased Sigma-Aldrich; host or cells: soybean (plant-derived preparation)
T1 sequence (P08170 1-839): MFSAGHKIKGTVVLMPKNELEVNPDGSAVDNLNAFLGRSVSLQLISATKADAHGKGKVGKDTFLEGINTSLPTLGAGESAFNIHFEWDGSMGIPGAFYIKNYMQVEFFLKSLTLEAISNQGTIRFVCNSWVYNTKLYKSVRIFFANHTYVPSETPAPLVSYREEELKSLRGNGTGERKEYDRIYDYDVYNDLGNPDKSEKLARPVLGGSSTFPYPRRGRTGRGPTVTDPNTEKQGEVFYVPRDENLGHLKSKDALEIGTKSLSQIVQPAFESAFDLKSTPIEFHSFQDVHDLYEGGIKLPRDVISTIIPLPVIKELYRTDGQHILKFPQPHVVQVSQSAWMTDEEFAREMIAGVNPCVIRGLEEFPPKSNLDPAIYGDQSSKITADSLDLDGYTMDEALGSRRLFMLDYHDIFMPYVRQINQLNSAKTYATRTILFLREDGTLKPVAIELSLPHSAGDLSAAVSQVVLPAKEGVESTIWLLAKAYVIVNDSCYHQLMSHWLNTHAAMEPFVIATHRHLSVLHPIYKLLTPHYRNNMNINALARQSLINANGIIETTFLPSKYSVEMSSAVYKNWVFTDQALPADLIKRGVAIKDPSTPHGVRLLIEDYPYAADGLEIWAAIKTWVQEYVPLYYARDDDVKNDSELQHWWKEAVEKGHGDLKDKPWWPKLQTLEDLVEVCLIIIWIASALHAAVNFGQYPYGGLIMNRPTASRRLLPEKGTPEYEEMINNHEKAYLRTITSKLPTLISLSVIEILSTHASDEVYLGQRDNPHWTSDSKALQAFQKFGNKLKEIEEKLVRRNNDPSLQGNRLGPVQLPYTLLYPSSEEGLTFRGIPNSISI
Experimental: (§1) Heparin sodium salt was purchased from WZF Polfa (Warsaw, Poland). HPLC grade solvents (methanol and orthophosphoric acid) were from Avantor Performance Materials (Avantor PM, Gliwice, Poland). All other chemicals and solvents were of analytical grade and supplied by Avantor PM. In all analyses redistilled water was used. Enzymatic tests were done using 96-well plates and monitored using a Synergy 4 microplate reader (BioTek, Winooski, VT, USA). Column chromatography (CC) was performed on silica gel 60 G (0.2–0.5 mm, Macherey-Nagel, Düren, Germany). Analytical TLC was carried out on silica gel 60 G precoated plates (Merck, Warsaw, Poland) using horizontal DC chambers (Chromdes, Lublin, Poland). Flash chromatography was carried out on an Interchim puriFlash^TM 430evo chromatograph (Interchim Inc., San Pedro, CA, USA) equipped with a UV-Vis detector scanning in the wavelength range of 200–600 nm, a fraction collector, and Interchim puriFlash Silica HC (50 µm, 72 mm × 15 mm, 4 g) preparative columns. The flow rate was 7 mL/min. The mobile phase consisted of petroleum ether (A), chloroform (B), and methanol (C). A linear gradient system was used for elution (A:B:C): 0–9 min, 75:25:0 (v/v/v); 9–10 min, 49:49:2; 10–15 min, 45:45:10. Before injection, samples were dissolved in chloroform. Melting points (uncorrected) were determined on a Boetius apparatus (Carl Zeiss, Jena, Germany). UV-Vis spectra, before and after adding ionization and complexation reagents, were recorded at 25 °C on a UV-1601 Spectrophotometer (Rayleigh, Beijing, China) in methanol, according to Mabry et al.. ESI-MS spectra were measured on a UHPLC-3000 RS chromatograph (Dionex, Dreieich, Germany) equipped with a dual low-pressure gradient pump, an autosampler, a diode array detector, and an AmaZon SL ion trap mass spectrometer with an ESI interface (Bruker Daltonik, Bremen, Germany). IR spectra were recorded in KBr on a Bruker Alpha FT-IR spectrometer (Bruker Daltonik). Optical rotation ( [α]D20 ) was measured in chloroform on a PolAAr 3001 polarimeter (Optical Activity, Ramsey, UK). ^1H-NMR, ^13C-NMR, ^1H-^1H COSY, HMQC, and HMBC spectra were recorded at 25 °C on a Bruker Daltonik III 600 MHz spectrometer in CDCl3 and with TMS as the internal standard.
Inhibitory activity of the tested analytes (extracts and individual compounds) was determined by a spectrophotometric method adjusted to a 96-well microtiter plates according to Granica et al.. The protocol was started by adding 50 μL of the tested analyte solution in sodium borate buffer (pH = 9.0), then 50 μL of linoleic acid solution (134 μM) was added, followed by 50 μL of lipoxygenase solution (167 U/mL) in sodium borate buffer (pH = 9.0). The reaction mixture was vigorously shaken and changes in absorbance were measured at 234 nm over a period of 15 min with 1 min intervals. […] At each level three independent experiments were carried out in duplicate. Indomethacin was used as a positive control. Activity of the tested analytes was calculated as inhibition percentage (% Inhibition) of lipoxygenase according to Equation (2): (2) % Inhibition=100×(1−(AAN−ALA/ALOX)), where AAN—absorbance of solution with the tested analyte, ALA—absorbance of solution without the enzyme, ALOX—absorbance of solution without the tested analyte (negative control). The absorbance value in the 10th minute of the reaction were used for the calculation.

[2] = molecular target: T2, bovine testis hyaluronidase (Bos taurus, UniProt Q2YDK3); assay: Hyaluronidase inhibition test (turbidimetric, 96-well); assay type: biochemical; conditions: for IC50: read-out: HYAL inhibitory activity (IC50) (converted)
T2 construct: purchased Sigma-Aldrich; host or cells: bovine testis (tissue-derived preparation)
T2 sequence (Q2YDK3 36-553): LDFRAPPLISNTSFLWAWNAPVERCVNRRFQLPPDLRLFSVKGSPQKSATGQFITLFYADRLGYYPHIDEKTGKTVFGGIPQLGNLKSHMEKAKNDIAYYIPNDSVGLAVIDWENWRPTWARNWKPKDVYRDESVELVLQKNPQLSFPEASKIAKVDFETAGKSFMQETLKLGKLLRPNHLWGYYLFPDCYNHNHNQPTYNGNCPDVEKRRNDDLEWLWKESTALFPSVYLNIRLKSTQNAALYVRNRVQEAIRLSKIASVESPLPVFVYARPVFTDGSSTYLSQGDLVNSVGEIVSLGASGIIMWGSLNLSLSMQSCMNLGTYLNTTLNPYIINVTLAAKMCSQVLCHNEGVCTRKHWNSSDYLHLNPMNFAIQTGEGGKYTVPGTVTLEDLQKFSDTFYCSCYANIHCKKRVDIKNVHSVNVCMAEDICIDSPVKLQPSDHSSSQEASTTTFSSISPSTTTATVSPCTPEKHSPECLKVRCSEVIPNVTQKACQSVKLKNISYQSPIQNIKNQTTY
Experimental: as §1
Inhibitory activity of the tested analytes (extracts and individual compounds) was determined by turbidimetric method adapted for 96-well microtiter plates as described previously. The protocol was started by adding 20 μL of the tested analyte solution in monosodium phosphate buffer (pH = 7.0) to 40 μL of hyaluronidase solution (22.55 U/mL) in monosodium phosphate buffer (pH = 7.0) and the mixture was incubated at 37.0 ± 0.1 °C in the dark for 10 min. After this time 40 μL of hyaluronic acid solution (0.03%, w/v) in monosodium phosphate buffer (pH = 5.35) was added and the mixture was further incubated at 37.0 ± 0.1 °C in the dark for 45 min. Finally 300 μL of bovine serum albumin solution (0.1%, w/v) in sodium acetate buffer (pH = 3.75) was added to the mixture and incubated in room temperature for 10 min. Changes in turbidity were measured at 600 nm. […] At each level three independent experiments were carried out in duplicate. Heparin was used as a positive control. Activity of the tested analytes was calculated as inhibition percentage (% Inhibition) of hyaluronidase according to the Equation (1): (1) % Inhibition=100×(1−(AHA−AAN/AHA−AHYAL)), where AHA—absorbance of solution without the enzyme, AHYAL—absorbance of solution without the tested analyte (negative control), AAN—absorbance of solution with the tested analyte.

[3] = tested 100−1000 μg/mL, hyaluronic acid substrate, 37 °C, mean ± SD (n = 3 × 2)

| Molecule | IC50 [2, 3] [mM] | IC50 [1] [mM] | inhibitory activity towards hyaluronidase in the tested concentration range ([2]; tested concentration range 100−1000 μg/mL) | HYAL inhibitory activity (IC50) [2, 3] [µg/mL] | pIC50 [1] |
| --- | --- | --- | --- | --- | --- |
| COC(=O)c1ccccc1 [BM, methyl benzoate] | 5.7 |  |  |  | 2.56 |
| COc1cc2oc(-c3ccc(O)cc3)c(OC)c(=O)c2c(O)c1C [DL, 4′,5-dihydroxy-3,7-dimethoxy-6-methylflavone] | 1.32 | 0.92 |  |  |  |
| CC1(C)CC[C@]2(C(=O)O)CC[C@]3(C)C(=CC[C@@H]4[C@@]5(C)CC[C@H](O)C(C)(C)[C@@H]5CC[C@]43C)[C@@H]2C1 [OA, oleanolic acid] |  |  |  |  | 2.69 |
| C[C@H]1[C@H](C)CC[C@]2(C(=O)O)CC[C@]3(C)C(=CC[C@@H]4[C@@]5(C)CC[C@H](O)C(C)(C)[C@@H]5CC[C@]43C)[C@H]12 [UA, ursolic acid] | 0.832 |  |  |  | 2.79 |
| CC[C@H](CC[C@@H](C)[C@H]1CC[C@H]2[C@@H]3CC=C4C[C@@H](O)CC[C@]4(C)[C@H]3CC[C@]12C)C(C)C [β-SIT, β-sitosterol] | 1.65 | 1.91 |  |  |  |

Second part, led by results:

| IC50 [2, 3] [mM] | IC50 [1] [mM] | inhibitory activity towards hyaluronidase in the tested concentration range ([2]; tested concentration range 100−1000 μg/mL) | HYAL inhibitory activity (IC50) [2, 3] [µg/mL] | Molecule | pIC50 [1] |
| --- | --- | --- | --- | --- | --- |
| > 3.22 | 2.64 | no inhibitory activity |  | CCCCCCCCCCCCCCCCCCCCCC [DOC, docosane] |  |
| 1.57 | 1.12 |  |  | COc1cc2oc(-c3ccc(O)cc3)cc(=O)c2c(O)c1C [DS, 4′,5-dihydroxy-7-methoxy-6-methylflavone] |  |
|  | 0.259 |  |  | COc1ccc2c(c1)c(CC(=O)O)c(C)n2C(=O)c1ccc(Cl)cc1 [IND, indomethacin, reference compound] |  |
| 5.22 | 2.57 |  |  | COC(=O)c1ccccc1O [SM, methyl salicylate] |  |
| 1.59 | 0.54 |  |  | CC1=CC(=O)CC(C)(C)C1(O)C=CC(C)O [VO, (6S,9R)-6-hydroxy-3-oxo-α-ionol] |  |
|  |  |  | 366.24 ± 14.72 | heparin [HP, reference compound] |  |
